Measurements taken from US20240142467A1, “Use of Biomarkers in the Treatment of Fibrotic Conditions with a PDE4B-inhibitor” (Boehringer Ingelheim International GmbH, priority 2022, published 2024).

System: patients with idiopathic pulmonary fibrosis
Assay: Phase 2 trial NCT04419506: change from baseline in FVC at 12 weeks
Assay type: in vivo, human
Conditions: for lung function (FVC) compared to placebo: non-AF-background and AF-background groups; for lung function (FVC) compared to placebo / mean change in FVC from baseline to Week 12 / median change in FVC: 18 mg twice daily; for probability that the compound is superior to placebo: Bayesian borrowing analysis; for median change in FVC / median difference in FVC change vs placebo: Bayesian borrowing
Source text: Patients with a usual interstitial pneumonia (UIP) or probable UIP pattern on high-resolution computed tomography consistent with idiopathic pulmonary fibrosis, confirmed by central review, were eligible (Raghu et al, AM j Respir Crit Care Med 2019; 200:1089-1092). Patients also had forced FVC ≥45% predicted, and diffusing capacity of the lungs for carbon monoxide (DLco) corrected for hemoglobin 25-<80% predicted. Patients were permitted to continue antifibrotic therapy (nintedanib or pirfenidone) if they had been receiving a stable dose for at least 8 weeks prior to screening. Patients with airways obstruction, recent respiratory tract infection, or a history of suicidal behavior in the past 2 years, were excluded.
The primary endpoint—change from baseline in FVC at Week 12—was evaluated separately in patients without and with background antifibrotics at baseline, and included all data collected while on treatment. The primary analysis was based on a Bayesian borrowing approach in order to incorporate historical data for the placebo arms within the groups treated without or with background antifibrotics via meta-analytic predictive priors that were made robust against prior-data conflicts (Schmidli et al, Biometrics 2014 70: 1023-1032). A vaguely informative prior was used for the arms using the PDE4 inhibitor of formula A′ (Compound of formula A′ in the following). The primary endpoint analysis was conducted in a two-step procedure. In the first step, the data from the current trial were analyzed with a restricted maximum likelihood-based approach using a mixed model with repeated measurements (MMRM). The analysis included the fixed, categorical effect of treatment at each visit, and the fixed, continuous effects of baseline FVC at each visit. Visit was treated as the repeated measure, with an unstructured covariance structure used to model the within-patient measurements. Based on this model, the adjusted mean changes from baseline in FVC at 12 weeks (and the related standard error) were calculated for the Compound of formula A′ and placebo arms within the patient groups without and with background antifibrotics. In the second step, the adjusted means in the placebo arms were combined with the meta-analytic predictive priors derived based on the clinical trials in the nintedanib clinical development program in idiopathic pulmonary fibrosis. In order to evaluate the treatment effects in each group, the posterior distribution for the treatment difference of the compound of formula A′ versus placebo with respect to the primary endpoint was used. The median of the posterior distribution for the treatment difference (and 95% credible intervals) was calculated as the primary analysis, and posterior probabilities that the treatment difference was higher than different boundaries were reported.
Missing data for the primary analysis (continuous endpoint) were not imputed. The MMRM analysis allows for missing data, assuming they are missing at random. Sensitivity analyses were conducted to investigate the potential effect of missing data as well as early discontinuation via a treatment policy strategy, and a pooled analysis combining all patients irrespective of background treatment with antifibrotics.
As this was an exploratory trial, no confirmatory testing and adjustment for multiplicity was planned. The sample size was chosen based on the evaluations of posterior probabilities for the change from baseline in FVC at Week 12, assuming a standard deviation of 200 mL and treatment differences of 70 mL and 20 mL in the patients treated without or with background antifibrotics, respectively.

[1] = with background antifibrotics, Week 12
[2] = without background antifibrotics, Week 12

[O-][S@+]1CCc2nc(N3CCC(c4ncc(Cl)cn4)CC3)nc(NC3(CO)CCC3)c21 [Compound of formula A′]
lung function (FVC) compared to placebo: stabilized lung function
lung function (FVC) compared to placebo (listed as PDE4-inhibitor of formula A′): significantly slowed decrease in lung function
adjusted mean change from baseline in FVC after 12 weeks (pooled group with and without background antifibrotics, MMRM): +4.6 ml
overall treatment effect on FVC (difference vs placebo) (pooled group with and without background antifibrotics, MMRM, Week 12): 88.4 mL
probability that the compound is superior to placebo (with background antifibrotics): 98.6%
mean change in FVC from baseline to Week 12 (with background antifibrotics, MMRM): +2.7 mL
difference in mean FVC change vs placebo (with background antifibrotics, MMRM, Week 12): 80.4 mL
median change in FVC [1]: +2.7 mL
median difference in FVC change vs placebo [1]: 62.4 mL
probability that the compound is superior to placebo (without background antifibrotics): 99.8%
mean change in FVC from baseline to Week 12 (without background antifibrotics, MMRM): +6.1 mL
difference in mean FVC change vs placebo (without background antifibrotics, MMRM, Week 12): 101.7 mL
median change in FVC [2]: +5.7 mL
median difference in FVC change vs placebo [2]: 88.4 mL
